Test results reported in patent US20070244146A1, “Thienopyridines as IKK inhibitors” (priority 2004, published 2007).

Molecular target: T1, recombinant human IKKb (Homo sapiens, UniProt O14920)
T1 sequence (O14920 1-756): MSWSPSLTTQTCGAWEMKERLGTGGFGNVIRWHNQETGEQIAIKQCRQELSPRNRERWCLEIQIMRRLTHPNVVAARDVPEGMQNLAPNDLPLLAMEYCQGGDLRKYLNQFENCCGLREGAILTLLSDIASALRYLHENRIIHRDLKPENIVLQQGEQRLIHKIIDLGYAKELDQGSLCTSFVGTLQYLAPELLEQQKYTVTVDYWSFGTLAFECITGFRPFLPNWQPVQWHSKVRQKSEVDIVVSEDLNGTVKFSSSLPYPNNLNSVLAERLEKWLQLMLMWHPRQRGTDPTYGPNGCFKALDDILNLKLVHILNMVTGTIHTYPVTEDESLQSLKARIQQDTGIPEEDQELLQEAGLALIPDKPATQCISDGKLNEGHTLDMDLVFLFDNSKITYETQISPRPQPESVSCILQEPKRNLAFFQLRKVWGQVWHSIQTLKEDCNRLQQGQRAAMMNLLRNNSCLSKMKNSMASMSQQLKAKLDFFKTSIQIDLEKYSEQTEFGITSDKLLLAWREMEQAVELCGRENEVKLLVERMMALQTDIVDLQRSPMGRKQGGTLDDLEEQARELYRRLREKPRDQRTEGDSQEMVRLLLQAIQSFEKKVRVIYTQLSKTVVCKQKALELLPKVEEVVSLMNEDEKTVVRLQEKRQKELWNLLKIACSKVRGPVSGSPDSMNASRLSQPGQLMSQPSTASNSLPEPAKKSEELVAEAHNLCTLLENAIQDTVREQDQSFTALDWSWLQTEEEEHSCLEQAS
Assay: IKK kinase assay: incorporation of radiolabeled ATP into biotin-peptide substrate derived from IkB-alpha
Assay type: biochemical
Settings: purified recombinant human IKKb 25 nM, ATP 10 μM, 30 min at 30° C.
Protocol: This example describes an assay that is useful in evaluating and selecting a compound that modulates IKK. The assay measures the incorporation of radiolabeled ^3P gATP into the Biotin-peptide kinase substrate, derived from the IkB-alpha sequence.
In a 40 ul volume, 26 ul of ADB diluted, purified recombinant human IKKb [25 nM] was mixed with 4 ul 10× concentration of test compounds, [usually 100 uM-0.003 uM], [10%] DMSO and incubated for 10 minutes at room temperature. The kinase reaction was initiated by the addition of 10 ul 4× substrate cocktail containing the peptide substrate [0 or 30 μM] ATP [10 μM], and ^3PgATP [2 uCi/r×n]. After 30 minutes of incubation at 30° C., the reaction was terminated by the transfer of 25 ul reaction sample to a phosphocellulose membrane/plate containing 150 ul 0.75% phosphoric acid.
On the following day, the free radionucleotides in the phosphocellulose membrane were washed under vacuum with 3×200 ul of 0.75% phosphoric acid. After the last wash membrane/plates were transferred to an adoptor plate and 70 ul of scintillation cocktail was added to each well. After four hours, the amount of radioactivity for each well was counted in a top counter.

N#Cc1cccc(-c2cc3c(N)ncc(C(N)=O)c3s2)c1 [Compound 12, 4-Amino-2-(3-cyano-phenyl)-thieno[3,2-c]pyridine-7-carboxylic acid amide]
IC50: < 1000 nM
